Measured values taken from patent US8685974B2 (Bayer CropScience AG, priority 2009, dated 2014).
Like-named read-outs stand apart in the source and are kept apart here. Marks after values point to notes of the source that are not given here.

Columns and labels:
Peronospora parasitica = test: In vivo test on Peronospora parasitica (crucifer downy mildew); conditions: dose of 500 ppm; cabbage plants; grading 5 days after contamination
Procedure: In Vivo Test on Peronospora parasitica (Crucifer Downy Mildew)
The active ingredients tested are prepared by homogenization in a mixture of acetone/Tween/DMSO, then diluted with water to obtain the desired active material concentration.
Cabbage plants (Eminence variety) in starter cups, sown on a 50/50 peat soil-pozzolana substrate and grown at 18-20° C., are treated at the cotyledon stage by spraying with the aqueous suspension described above.
(§1) Plants, used as controls, are treated with an aqueous solution not containing the active material.
After 24 hours, the plants are contaminated by spraying them with an aqueous suspension of Peronospora parasitica spores (50 000 spores per ml). The spores are collected from infected plant.
The contaminated cabbage plants are incubated for 5 days at 20° C., under a humid atmosphere.
Grading is carried out 5 days after the contamination, in comparison with the control plants.

Puccinia recondita = test: In vivo test on Puccinia recondita (brown rust); conditions: dose of 500 ppm; wheat plants; grading 10 days after contamination
Procedure: In Vivo Test on Puccinia recondita (Brown Rust)
(§2) The active ingredients tested are prepared by homogenization in a mixture of acetone/tween/DMSO, then diluted with water to obtain the desired active material.
Wheat plants (Scipion variety) sown on 50/50 peat soil-pozzolana substrate in starter cups and grown at 12° C., are treated at the 1-leaf stage (10 cm tall) by spraying with the aqueous suspension described above.
as §1
After 24 hours, the plants are contaminated by spraying the leaves with an aqueous suspension of Puccinia recondita spores (100,000 spores per ml). The spores are collected from a 10-day-old contaminated wheat and are suspended in water containing 2.5 ml/l of tween 80 10%. The contaminated wheat plants are incubated for 24 hours at 20° C. and at 100% relative humidity, and then for 10 days at 20° C. and at 70% relative humidity.
Grading is carried out 10 days after the contamination, in comparison with the control plants.

[1] = pH 2.7
Sphaerotheca fuliginea = test: In vivo test on Sphaerotheca fuliginea (cucurbits powdery mildew); conditions: dose of 500 ppm; gherkin plants; grading 12 days after contamination
Procedure: In Vivo Test on Sphaerotheca fuliginea (Cucurbits Powdery Mildew)
as §2
Gherkin plants (Vert petit de Paris variety) in starter cups, sown on a 50/50 peat soil-pozzolana substrate and grown at 20° C./23° C., are treated at the cotyledon Z10 stage by spraying with the aqueous suspension described above. Plants, used as controls, are treated with an aqueous solution not containing the active material.
After 24 hours, the plants are contaminated by spraying them with an aqueous suspension of Sphaerotheca fuliginea spores (100 000 spores per ml). The spores are collected from a contaminated plants. The contaminated gherkin plants are incubated at about 20° C./25° C. and at 60/70% relative humidity.
Grading (% of efficacy) is carried out 12 days after the contamination, in comparison with the control plants.

Alternaria solani = test: Alternaria test (tomato) / protective; type: in vivo; conditions: 500 ppm active compound, protective spray, evaluated 7 days after inoculation
Method in brief: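 Young tomato plants sprayed protectively with compound formulated in DMF with alkylaryl polyglycol ether emulsifier and diluted in water to the application rate. After inoculation, plants held at 96% rel. humidity and 20° C. Efficacy scored 7 days post-inoculation: 0% equals untreated control, 100% no infection.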

Leptosphaeria nodorum = Leptosphaeria nodorum test (wheat) / protective; type: in vivo; conditions: 500 ppm active compound, protective spray, evaluated 7-9 days after inoculation
Method in brief: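 Young wheat plants sprayed protectively with compound in DMF/alkylaryl polyglycol ether emulsion diluted in water, then kept in greenhouse at 90% rel. humidity, 22° C. Scored 7-9 days after inoculation as % efficacy, 0% equal to untreated control and 100% no infection.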

Pyrenophora teres = test: In vivo test on Pyrenophora teres (barley net blotch); conditions: dose of 500 ppm; barley plants; grading 12 days after contamination
Method in brief: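 Barley plants (Plaisant) grown at 12° C. sprayed at 1-leaf stage with compound in acetone/Tween/DMSO diluted in water; 24 h later inoculated with P. teres spores (12,000 spores/ml). Incubated 24 h at ~20° C., 100% RH, then 12 days at 80% RH; graded 12 days post-inoculation against untreated controls.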

Fusarium graminearum = type: cell-based; conditions: 50 μM; for % Inhibition of DON/AcDON at 50 μM: 7 days at 28° C.
[2] = logP by HPLC at pH 2.3 (0.1% phosphoric acid / acetonitrile); type: physicochemical; conditions: method [a]: pH 2.3 with 0.1% phosphoric acid and acetonitrile as eluent
[3] = tested on: Mycosphaerella graminicola; test: In vivo test on Mycosphaerella graminicola (wheat leaf spot); conditions: dose of 500 ppm; wheat plants; grading 21 to 28 days after contamination
Procedure: In Vivo Test on Mycosphaerella graminicola (Wheat Leaf Spot)
The active ingredients tested are prepared by homogenization in a mixture of acetone/tween/DMSO, then diluted with water to obtain the desired active material concentration.
Wheat plants (Scipion variety), sown on a 50/50 peat soil-pozzolana substrate in starter cups and grown at 12° C., are treated at the 1-leaf stage (10 cm tall) by spraying with the aqueous suspension described above. Plants, used as controls, are treated with an aqueous solution not containing the active material.
After 24 hours, the plants are contaminated by spraying them with an aqueous suspension of Mycosphaerella graminicola spores (500 000 spores per ml). The spores are collected from a 7-day-old culture. The contaminated wheat plants are incubated for 72 hours at 18° C. and at 100% relative humidity, and then for 21 to 28 days at 90% relative humidity.
Grading (% of efficacy) is carried out 21 to 28 days after the contamination, in comparison with the control plants.

Fusarium proliferatum = test: Production of fumonisin FB1 by Fusarium proliferatum (microtiter plate, HPLC-MS/MS and OD620); type: cell-based
Botrytis cinerea = test: In vivo test on Botrytis cinerea (grey mould); conditions: dose of 500 ppm; gherkin plants; grading 5/7 days after contamination
Procedure: In Vivo Test on Botrytis cinerea (Grey Mould)
The active ingredients tested are prepared by homogenization in a mixture of acetone/Tween/DMSO, then diluted with water to obtain the desired active material
Gherkin plants (Vert petit de Paris variety), sown on a 50/50 peat soil-pozzolana substrate in starter cups and grown at 18-20° C., are treated at the cotyledon Z11 stage by spraying with the active ingredient prepared as described above.
as §1
After 24 hours, the plants are contaminated by depositing drops of an aqueous suspension of Botrytis cinerea spores (150,000 spores per ml) on upper surface of the leaves. The spores are collected from a 15-day-old culture and are suspended in a nutrient solution composed of: • 20 g/L of gelatine; • 50 g/L of D-fructose; • 2 g/L of NH4NO3; • 1 g/L of KH2PO4.
The contaminated cucumber plants are settled for 5/7 days in a climatic room at 15-11° C. (day/night) and at 80% relative humidity.
Grading is carried out 5/7 days after the contamination, in comparison with the control plants.

Compound	log p [1]	protection (% of efficacy) (Sphaerotheca fuliginea) [%]	protection (Pyrenophora teres) [%]	log p [2]	other results
CC(=O)n1cc(-c2ccncc2)c(-c2ccc(Cl)s2)n1 [Example 86]	2.04^[b]	–	–	–	protection (Peronospora parasitica): 92%; protection (Puccinia recondita): 75%
CC(C)=CCn1cc(-c2ccncc2)c(-c2ccc(Cl)s2)n1 [Example 7]	2.25^[b]	78	–	–	–
CC(C)Cn1cc(-c2ccnc(NC(=O)C3CC3)c2)c(-c2ccc(Cl)s2)n1 [Example 359]	–	–	70	3.48^[a]	efficacy (Alternaria solani): 94%; efficacy (Leptosphaeria nodorum): 90%; % Inhibition of fungal growth at 50 μM (Fusarium graminearum): 62%; % Inhibition of DON/AcDON at 50 μM (Fusarium graminearum): 100%
Clc1ccc(-c2n[nH]cc2-c2ccncc2)s1 [Example 1]	0.96^[b]	–	90	–	protection (% of efficacy) [3]: 75%; % inhibition FB1 production at 50 μM (Fusarium proliferatum; 5 days at 20° C., HPLC-MS/MS): 82%; % inhibition fungal growth at 50 μM (Fusarium proliferatum; Fusarium proliferatum, OD620 at start and after 5 days): 41%
CC#CCn1cc(-c2ccncc2)c(-c2ccc(Cl)s2)n1 [Example 51]	1.81^[b]	100	–	–	protection (Puccinia recondita): 75%; logP value of the minor isomer (in parenthesis in column Isomer ratio [d]) ([1]; minor isomer, main value of the example measured by method [b]): (1.60)
CC(=O)Nc1cc(-c2cn(CC(C)C)nc2-c2ccc(Cl)s2)ccn1 [Example 358]	–	–	80	2.96^[a]	efficacy (Alternaria solani): 100%; % Inhibition of fungal growth at 50 μM (Fusarium graminearum): 102%; % Inhibition of DON/AcDON at 50 μM (Fusarium graminearum): 100%
CC(C)Nc1nccc(-c2c[nH]nc2-c2ccc(Cl)s2)n1 [Example 312]	–	–	–	1.79^[a]	% Inhibition of fungal growth at 50 μM (Fusarium graminearum): 87%; % Inhibition of DON/AcDON at 50 μM (Fusarium graminearum): 99%
Clc1ccc(-c2nn(CCc3ccccc3)cc2-c2ccncc2)s1 [Example 58]	2.3^[b]	81	–	–	–
CCNC(=O)Nc1cc(-c2cn(CC(C)C)nc2-c2ccc(Cl)s2)ccn1 [Example 321]	–	–	–	3.18^[a]	% Inhibition of fungal growth at 50 μM (Fusarium graminearum): 39%; % Inhibition of DON/AcDON at 50 μM (Fusarium graminearum): 92%
CC(C)CC(C)n1ncc(-c2ccncc2)c1-c1ccc(Cl)s1 (centres unmarked) [Example 14]	2.42^[b]	78	–	–	–
Clc1ccc(-c2nn(C3CCCC3)cc2-c2ccncc2)s1 [Example 15]	2.25^[b]	92	89	–	protection (Botrytis cinerea): 100%
Clc1ccc(-c2nn(C3CCC3)cc2-c2ccncc2)s1 [Example 18]	2.04^[b]	83	100	–	protection (Botrytis cinerea): 100%; protection (Puccinia recondita): 89%
CCn1cc(-c2ccnc(N=C(c3ccccc3)c3ccccc3)c2)c(-c2ccc(Cl)s2)n1 [Example 311]	–	–	–	3.99^[a]	efficacy (Alternaria solani): 70%
CC(C)Cn1cc(-c2ccnc(NS(C)(=O)=O)c2)c(-c2ccc(Cl)s2)n1 [Example 362]	–	–	–	3.04^[a]	–
